# In article PMC7761779 (Polymers, 2020):
# Read-outs that look alike come from different tables or passages of the source.
# Assays:
# [1] = Dynamic Vapor Sorption (DVS) study of NIA solutions; assay type: physicochemical; settings: label = vehicle of a 5% (w/v) NIA solution; 5 μL; 32 ± 1 °C, 50 ± 2% RH; n = 3
# Description: Nitrogen was used as the carrier gas (200 mL/min). To monitor mass differences, 15 mm quartz glass pans connected to a microbalance accurate to 0.00001 mg were employed. Then, 5 μL solutions of 5% NIA (w/v) were added to the pans, and data were recorded using a Universal Analysis 2000 (TA Instrument, New Castle, DE, USA). Temperature and relative humidity (RH) were maintained over the course of the studies at 32 ± 1 °C and 50 ± 2% RH, respectively.
# [2] = design: method as in PMID 30529662; settings: label = neat solvent of the NIA solution; finite dose; porcine skin; cited from earlier work
# [3] = design: method as in PMID 30529662; settings: label = neat solvent of the NIA solution; porcine skin; cited from earlier work
# [4] = design: method as in Suwanpidokkul et al.; settings: porcine skin, infinite dose, ref Suwanpidokkul et al., cited from earlier work
# [5] = design: method as in PMID 3958901; settings: PEG 400/water mixtures; cadaver skin; infinite dose; cited from earlier work
# [6] = design: method as in PMID 30529662; settings: label = solvent; cited from earlier work
smiles,measurement,setting,value
"CO[C@H]1CO[C@H]2[C@@H]1OC[C@H]2OC [DMI, dimethyl isosorbide]",Percentage of applied weight recovered at 24 h (DVS),[1],76.3 ± 0.1%
same,Cumulative permeation of NIA at 24 h,[2],103.6 μg/cm^2
same,Skin retention of NIA,[3],16.7 ± 6.3%
Cc1cn([C@H]2C[C@H](N=[N+]=[N-])[C@@H](CO)O2)c(=O)[nH]c1=O [zidovudine],Flux,[4]; PEG 400/water vehicle,15.52 ± 0.60 μg/cm^2/h
same,Flux,[4]; ethanol/water vehicle,9.96 ± 0.63 μg/cm^2/h
same,Flux,[4]; isopropanol/water vehicle,10.35 ± 0.67 μg/cm^2/h
O=C(O)CCc1nc(-c2ccccc2)c(-c2ccccc2)o1 [oxaprozin],Flux trend with increasing PEG 400 concentration in the formulation,[5],drop linearly
"CCOCCOCCO [TC, Transcutol® P]",Percentage of applied weight recovered at 24 h (DVS),[1],17.6 ± 0.5%
same,Solubility of NIA,[6],8.0 ± 0.6%
same,Cumulative permeation of NIA at 24 h,[2],95.1 μg/cm^2
same,Skin retention of NIA,[3],16.4 ± 5.8%
N=C(N)N/N=C/c1c(Cl)cccc1Cl [guanabenz],Flux trend with increasing PEG 400 concentration in the formulation,[5],drop linearly
"CC(O)CO (centres unmarked) [PG, propylene glycol]",Percentage of applied weight recovered at 24 h (DVS),[1],44.6 ± 0.02%
same,Cumulative permeation of NIA at 24 h,[2],46.0 μg/cm^2
